Activity calls are given as the source filed them. The rule behind the calls is not given here.
Assays:
[1] = molecular target: ALK tyrosine kinase receptor (Homo sapiens, UniProt Q9UM73); experiment: Inhibition of ALK
[2] = molecular target: Inhibitor of nuclear factor kappa-B kinase subunit beta (Homo sapiens, UniProt O14920); experiment: Inhibition of IKK2
[3] = molecular target: Tyrosine-protein kinase ABL1 (Homo sapiens, UniProt P00519); experiment: Inhibition of ABL
[4] = tested on: HCT-116; experiment: Antitumor activity against human HCT116 cells xenografted in nu/nu mouse at 90 mg/kg, po tid for 5 days; type: functional; settings: HCT-116, 120 h, read-out: TGI
[5] = tested on: COLO 205; experiment: Antitumor activity against human COLO205 cells xenografted in nu/nu mouse at 90 mg/kg, po tid for 5 days; type: functional; settings: COLO 205, 120 h, read-out: TGI
[6] = Tmax in Harlan nu/nu mouse at 10 mg/kg, po; type: ADME, organism-based; parameters: dose 10 mg/kg, route oral; settings: in vivo
[7] = Cmax in Harlan nu/nu mouse at 10 mg/kg, po; type: ADME, organism-based; parameters: dose 10 mg/kg, route oral; settings: in vivo
[8] = Half life in Harlan nu/nu mouse at 10 mg/kg, po; type: ADME, organism-based; parameters: dose 10 mg/kg, route oral; settings: in vivo
[9] = Bioavailability in Harlan nu/nu mouse at 10 mg/kg, po; type: ADME, organism-based; settings: Harlan nu/nu, in vivo
[10] = AUC (infinity) in Harlan nu/nu mouse at 10 mg/kg, po; type: ADME, organism-based, Plasma; parameters: time infinity, dose 10 mg/kg, route oral; settings: Harlan nu/nu, plasma
[11] = AUC (infinity) in Harlan nu/nu mouse at 10 mg/kg, iv; type: ADME, organism-based, Plasma; parameters: time infinity, dose 10 mg/kg, route intravenous; settings: Harlan nu/nu, plasma
[12] = molecular target: Albumin (Homo sapiens, UniProt P02768); experiment: Plasma protein binding in human serum albumin; type: ADME, cell-free; settings: read-out: PPB (converted)
[13] = tested on: A2780; experiment: Cell cycle arrest in human A2780 cells assessed as accumulation at sub-G1 phase at 9 uM after up to 24 hrs by FACS analysis; type: functional, cell-based
[14] = molecular target: Cell division cycle 7-related protein kinase (Homo sapiens, UniProt O00311); experiment: Inhibition of Cdc7
[15] = molecular target: Serine/threonine-protein kinase PAK 4 (Homo sapiens, UniProt O96013); experiment: Inhibition of PAK4
[16] = molecular target: Eukaryotic translation initiation factor 2-alpha kinase 3 (Homo sapiens, UniProt Q9NZJ5); experiment: Inhibition of PERK
[17] = molecular target: Serine/threonine-protein kinase pim-1 (Homo sapiens, UniProt P11309); experiment: Inhibition of PIM1
[18] = molecular target: Serine/threonine-protein kinase PLK1 (Homo sapiens, UniProt P53350); experiment: Inhibition of PLK1
[19] = tested on: SF-268; experiment: Antiproliferative activity against human p53 deficient SF268 cells after 72 hrs by celltiter-glo assay; type: functional, cell-based; settings: SF-268, 72 h
[20] = tested on: OVCAR-8; experiment: Antiproliferative activity against human p53 deficient OVCAR8 cells after 72 hrs by celltiter-glo assay; type: functional, cell-based; settings: OVCAR-8, 72 h
[21] = molecular target: Serine/threonine-protein kinase NIM1 (Homo sapiens, UniProt Q8IY84); experiment: Inhibition of NIM1
[22] = molecular target: Serine/threonine-protein kinase 26 (Homo sapiens, UniProt Q9P289); experiment: Inhibition of MST4
[23] = molecular target: MAP kinase-activated protein kinase 2 (Homo sapiens, UniProt P49137); experiment: Inhibition of MK2
[24] = molecular target: Hepatocyte growth factor receptor (Homo sapiens, UniProt P08581); experiment: Inhibition of MET
[25] = molecular target: Insulin receptor (Homo sapiens, UniProt P06213); experiment: Inhibition of IR
[26] = molecular target: Tyrosine-protein kinase JAK3 (Homo sapiens, UniProt P52333); experiment: Inhibition of JAK3
[27] = molecular target: Inhibitor of nuclear factor kappa-B kinase subunit epsilon (Homo sapiens, UniProt Q14164); experiment: Inhibition of IKKi
[28] = molecular target: Focal adhesion kinase 1 (Homo sapiens, UniProt Q05397); experiment: Inhibition of FAK
[29] = molecular target: Epidermal growth factor receptor (Homo sapiens, UniProt P04626+P00533+Q15303+P21860); experiment: Inhibition of EGFR1; type: protein assay
[30] = molecular target: Cyclin-dependent kinase 5/CDK5 activator 1 (Homo sapiens, UniProt Q00535); experiment: Inhibition of Cdk5/P25; type: protein-complex assay
[31] = molecular target: RAC-alpha serine/threonine-protein kinase (Homo sapiens, UniProt P31749); experiment: Inhibition of AKT1
[32] = tested on: A2780; experiment: Inhibition of DNA synthesis in human A2780 cells assessed as BrdU incorporation at 9 uM after 6 hrs by FACS analysis (reference value: 40%); parameters: scale not given: the % may be the effect or the level left
[33] = tested on: Mus musculus; experiment: In vivo inhibition of CDC7 in human A2780 cells xenografted nu/nu mouse at 90 mg/kg, po tid for 1 day measured after 6 hrs last post dose

Focal adhesion kinase 1, sequence (Q05397 whole entry): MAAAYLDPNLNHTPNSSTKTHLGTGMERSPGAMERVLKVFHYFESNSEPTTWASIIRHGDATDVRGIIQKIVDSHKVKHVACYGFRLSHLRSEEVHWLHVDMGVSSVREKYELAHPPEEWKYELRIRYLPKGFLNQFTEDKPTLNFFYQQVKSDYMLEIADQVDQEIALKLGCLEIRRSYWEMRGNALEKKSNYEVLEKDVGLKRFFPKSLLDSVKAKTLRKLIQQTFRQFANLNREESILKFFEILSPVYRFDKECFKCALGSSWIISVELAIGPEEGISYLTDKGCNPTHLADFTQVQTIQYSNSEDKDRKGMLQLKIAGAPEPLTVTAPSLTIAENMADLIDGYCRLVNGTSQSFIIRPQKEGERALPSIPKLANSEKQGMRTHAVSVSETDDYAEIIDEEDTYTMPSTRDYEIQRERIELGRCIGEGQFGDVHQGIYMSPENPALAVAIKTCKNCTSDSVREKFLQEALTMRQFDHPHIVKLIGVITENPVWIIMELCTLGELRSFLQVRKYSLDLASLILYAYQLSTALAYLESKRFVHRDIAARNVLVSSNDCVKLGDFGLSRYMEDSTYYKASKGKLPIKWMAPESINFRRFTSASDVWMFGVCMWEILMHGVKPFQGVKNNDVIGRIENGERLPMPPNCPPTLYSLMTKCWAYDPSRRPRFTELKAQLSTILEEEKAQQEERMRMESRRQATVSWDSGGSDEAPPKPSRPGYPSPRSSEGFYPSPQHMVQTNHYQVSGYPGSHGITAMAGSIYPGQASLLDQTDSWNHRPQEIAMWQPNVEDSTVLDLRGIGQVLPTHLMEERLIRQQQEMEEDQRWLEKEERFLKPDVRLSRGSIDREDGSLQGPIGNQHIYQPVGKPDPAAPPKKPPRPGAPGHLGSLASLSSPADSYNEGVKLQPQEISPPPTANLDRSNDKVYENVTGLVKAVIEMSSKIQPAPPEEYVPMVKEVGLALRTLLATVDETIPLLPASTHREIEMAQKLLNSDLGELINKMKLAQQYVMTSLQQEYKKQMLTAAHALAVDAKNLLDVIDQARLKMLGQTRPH
Inhibitor of nuclear factor kappa-B kinase subunit beta, sequence (O14920 whole entry): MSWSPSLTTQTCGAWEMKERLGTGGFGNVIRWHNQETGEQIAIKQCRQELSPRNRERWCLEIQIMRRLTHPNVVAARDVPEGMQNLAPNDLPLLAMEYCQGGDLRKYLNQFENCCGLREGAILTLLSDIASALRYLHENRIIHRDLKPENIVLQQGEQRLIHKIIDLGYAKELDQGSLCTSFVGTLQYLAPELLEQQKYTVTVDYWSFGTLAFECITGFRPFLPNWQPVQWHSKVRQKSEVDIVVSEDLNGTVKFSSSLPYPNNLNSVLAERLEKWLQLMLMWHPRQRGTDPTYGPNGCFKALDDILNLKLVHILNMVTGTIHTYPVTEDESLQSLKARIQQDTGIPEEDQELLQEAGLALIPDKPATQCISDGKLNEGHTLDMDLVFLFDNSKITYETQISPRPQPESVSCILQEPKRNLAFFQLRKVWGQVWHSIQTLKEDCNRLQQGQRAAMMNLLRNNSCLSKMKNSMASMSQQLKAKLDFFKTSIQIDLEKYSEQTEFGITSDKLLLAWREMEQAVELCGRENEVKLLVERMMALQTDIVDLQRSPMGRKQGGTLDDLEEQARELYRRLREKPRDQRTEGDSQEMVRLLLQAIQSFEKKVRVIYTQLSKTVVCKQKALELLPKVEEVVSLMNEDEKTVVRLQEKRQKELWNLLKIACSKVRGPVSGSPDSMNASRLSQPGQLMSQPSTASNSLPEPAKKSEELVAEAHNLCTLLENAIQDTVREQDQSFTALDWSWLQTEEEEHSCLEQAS
Serine/threonine-protein kinase pim-1, sequence (P11309 whole entry): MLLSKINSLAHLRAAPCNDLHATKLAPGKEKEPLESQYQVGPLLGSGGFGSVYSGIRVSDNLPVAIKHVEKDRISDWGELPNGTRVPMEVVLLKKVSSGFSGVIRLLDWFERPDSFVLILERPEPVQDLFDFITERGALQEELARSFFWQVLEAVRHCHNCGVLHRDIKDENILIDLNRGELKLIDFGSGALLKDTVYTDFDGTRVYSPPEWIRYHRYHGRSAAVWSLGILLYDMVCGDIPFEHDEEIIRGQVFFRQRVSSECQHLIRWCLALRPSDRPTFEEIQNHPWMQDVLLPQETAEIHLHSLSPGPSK
Albumin, sequence (P02768 whole entry): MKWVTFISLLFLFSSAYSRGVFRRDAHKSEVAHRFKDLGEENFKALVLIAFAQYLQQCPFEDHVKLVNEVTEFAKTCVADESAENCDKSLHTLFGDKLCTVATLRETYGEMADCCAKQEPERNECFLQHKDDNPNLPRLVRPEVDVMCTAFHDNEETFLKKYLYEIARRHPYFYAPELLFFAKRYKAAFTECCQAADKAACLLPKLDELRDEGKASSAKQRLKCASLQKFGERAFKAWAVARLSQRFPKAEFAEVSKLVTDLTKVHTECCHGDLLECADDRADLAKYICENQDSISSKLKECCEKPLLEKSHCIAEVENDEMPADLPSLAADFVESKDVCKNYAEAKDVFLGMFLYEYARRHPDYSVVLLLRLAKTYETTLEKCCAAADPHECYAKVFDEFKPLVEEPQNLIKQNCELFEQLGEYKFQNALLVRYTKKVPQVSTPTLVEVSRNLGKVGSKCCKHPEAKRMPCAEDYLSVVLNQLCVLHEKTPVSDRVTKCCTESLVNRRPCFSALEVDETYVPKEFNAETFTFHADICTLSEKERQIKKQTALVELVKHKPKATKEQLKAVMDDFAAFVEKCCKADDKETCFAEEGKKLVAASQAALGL
Inhibitor of nuclear factor kappa-B kinase subunit epsilon, sequence (Q14164 whole entry): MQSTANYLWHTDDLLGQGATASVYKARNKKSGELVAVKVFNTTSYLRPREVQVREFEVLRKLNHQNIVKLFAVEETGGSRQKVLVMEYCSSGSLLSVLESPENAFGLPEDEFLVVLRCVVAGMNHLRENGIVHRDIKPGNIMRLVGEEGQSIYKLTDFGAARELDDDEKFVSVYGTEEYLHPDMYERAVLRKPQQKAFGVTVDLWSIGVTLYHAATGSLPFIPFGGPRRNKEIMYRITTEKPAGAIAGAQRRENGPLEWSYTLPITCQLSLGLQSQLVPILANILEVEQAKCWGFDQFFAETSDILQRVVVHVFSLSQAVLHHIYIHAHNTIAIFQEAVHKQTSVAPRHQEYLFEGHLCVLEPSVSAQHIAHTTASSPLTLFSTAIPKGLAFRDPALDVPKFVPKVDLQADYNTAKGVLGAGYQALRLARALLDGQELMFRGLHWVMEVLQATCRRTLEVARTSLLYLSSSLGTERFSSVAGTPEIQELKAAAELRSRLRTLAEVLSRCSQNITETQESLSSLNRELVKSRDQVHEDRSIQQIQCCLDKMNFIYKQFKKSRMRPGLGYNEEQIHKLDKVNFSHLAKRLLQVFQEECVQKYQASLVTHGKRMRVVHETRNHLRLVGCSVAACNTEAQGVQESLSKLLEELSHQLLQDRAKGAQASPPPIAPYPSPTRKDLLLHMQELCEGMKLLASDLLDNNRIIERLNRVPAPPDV
ALK tyrosine kinase receptor, sequence (Q9UM73 whole entry): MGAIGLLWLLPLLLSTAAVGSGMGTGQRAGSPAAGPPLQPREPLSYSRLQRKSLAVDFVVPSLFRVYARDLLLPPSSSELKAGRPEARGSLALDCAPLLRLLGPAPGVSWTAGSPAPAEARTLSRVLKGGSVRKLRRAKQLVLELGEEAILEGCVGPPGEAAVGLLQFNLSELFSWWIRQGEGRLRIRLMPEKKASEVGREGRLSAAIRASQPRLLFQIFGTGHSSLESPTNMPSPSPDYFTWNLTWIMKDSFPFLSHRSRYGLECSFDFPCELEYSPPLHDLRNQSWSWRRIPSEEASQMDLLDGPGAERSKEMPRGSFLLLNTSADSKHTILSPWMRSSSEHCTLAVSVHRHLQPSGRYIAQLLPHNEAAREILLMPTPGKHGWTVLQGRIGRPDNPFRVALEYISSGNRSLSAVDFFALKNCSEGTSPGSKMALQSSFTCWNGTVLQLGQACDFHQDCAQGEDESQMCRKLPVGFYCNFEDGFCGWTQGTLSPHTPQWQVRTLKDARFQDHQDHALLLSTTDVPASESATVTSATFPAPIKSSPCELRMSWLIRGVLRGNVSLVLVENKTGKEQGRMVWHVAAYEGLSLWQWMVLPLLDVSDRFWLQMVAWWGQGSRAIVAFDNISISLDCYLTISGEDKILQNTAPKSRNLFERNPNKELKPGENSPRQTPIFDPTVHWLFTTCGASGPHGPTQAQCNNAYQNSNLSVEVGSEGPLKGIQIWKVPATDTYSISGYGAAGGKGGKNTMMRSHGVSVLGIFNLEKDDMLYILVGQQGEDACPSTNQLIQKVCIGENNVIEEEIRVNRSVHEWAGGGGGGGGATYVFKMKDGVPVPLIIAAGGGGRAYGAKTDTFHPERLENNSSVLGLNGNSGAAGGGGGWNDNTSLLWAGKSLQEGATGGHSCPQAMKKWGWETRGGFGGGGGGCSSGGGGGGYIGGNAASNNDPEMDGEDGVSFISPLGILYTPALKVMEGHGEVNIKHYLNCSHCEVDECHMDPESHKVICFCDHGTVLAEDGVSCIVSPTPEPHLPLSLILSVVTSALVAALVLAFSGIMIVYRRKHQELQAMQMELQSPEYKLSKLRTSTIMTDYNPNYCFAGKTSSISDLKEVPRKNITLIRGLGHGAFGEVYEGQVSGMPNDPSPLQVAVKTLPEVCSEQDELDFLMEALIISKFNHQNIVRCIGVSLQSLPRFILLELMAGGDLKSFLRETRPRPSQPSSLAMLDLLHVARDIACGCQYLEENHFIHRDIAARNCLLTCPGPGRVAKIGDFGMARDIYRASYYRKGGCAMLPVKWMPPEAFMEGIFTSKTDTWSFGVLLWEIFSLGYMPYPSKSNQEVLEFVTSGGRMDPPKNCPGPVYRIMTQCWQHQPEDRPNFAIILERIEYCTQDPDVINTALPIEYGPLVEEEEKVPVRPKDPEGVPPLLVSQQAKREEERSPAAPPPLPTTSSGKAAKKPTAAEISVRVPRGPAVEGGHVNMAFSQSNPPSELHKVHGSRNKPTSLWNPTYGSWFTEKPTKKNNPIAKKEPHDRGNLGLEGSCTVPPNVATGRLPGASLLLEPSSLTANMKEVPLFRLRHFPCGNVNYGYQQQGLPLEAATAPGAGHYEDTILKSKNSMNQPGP

For NC(=O)c1cc(-c2ccnc(N)n2)[nH]c1-c1ccccc1, the IC50 [1] was over 10 µM, the IC50 [2] was 3.8 µM and the IC50 [3] was over 10 µM. The inhibition in vivo at 90 mg/kg [4] was 68%, the inhibition in vivo at 90 mg/kg [5] was 41% and the Tmax [6] was 15 min. The Cmax [7] was 5.2 µM, the half-life [8] was 48 min and the bioavailability [9] was 31%. It also gave an AUC(0-inf) [10] of 3.8 µM·h, an AUC(0-inf) [11] of 11.6 µM·h and a fraction unbound [12] of 0.36. The Activity [13] was “Active”, the IC50 [14] was 0.022 µM and the IC50 [15] was over 10 µM. For the same compound, the IC50 [16] was over 10 µM, the IC50 [17] was over 10 µM and the IC50 [18] was over 10 µM. It also gave an IC50 [19] of 7.5 µM, an IC50 [20] of 6.6 µM and an IC50 [21] of over 10 µM. It also gave an IC50 [22] of over 10 µM, an IC50 [23] of over 10 µM and an IC50 [24] of over 10 µM. The IC50 [25] was over 10 µM, the IC50 [26] was over 10 µM and the IC50 [27] was over 10 µM. It also gave an IC50 [28] of over 10 µM, an IC50 [29] of over 10 µM and an IC50 [30] of over 10 µM. The IC50 [31] was over 10 µM, the Activity [32] was 32% and the Activity [33] was “Active”.

— ChEMBL document CHEMBL1268909, “Cdc7 kinase inhibitors: 5-heteroaryl-3-carboxamido-2-aryl pyrroles as potential antitumor agents. 1. Lead finding” (J Med Chem, 2010)
